According to patent US7501281B2, “Compositions, methods and kits related to thrombin, Notch signaling and stamatogenesis and growth of stem cells” (Maine Medical Center Research Institute, priority 2003, dated 2009):

Experiments:
Assay type in all cases: cell-based, murine
[1] = tested on: NIH 3T3 stable transfectants; test: Analysis of FGF1-induced spheroid formation; settings: for spheroid formation: 10 ng/ml FGF1, 10 U/ml heparin
Experimental: Clonal populations of NIH 3T3 stable transfectants were resuspended and grown in media containing 10% BCS, 10% BCS containing 1 μM PD166866, 10% BCS containing 10 ng/ml recombinant human FGF1 and 10 U/ml heparin or 10% BCS containing 10 ng/ml recombinant human FGF1, 10 U/ml heparin and 1 μM PD166866 as indicated in the figure legend. Approximately 2×10^5 cells were plated per well (6-well dish) and three days after plating, phase-contrast micrographs of the cells were taken.

[2] = tested on: NIH 3T3 stable transfectants; test: Colony formation in soft agar; settings: for effect on colonies in soft agar: 10 ng/ml FGF1
Experimental: Clonal populations of NIH 3T3 cells stably transfected with vector control, soluble Jagged1 (sJ1), constitutively active Notch1 (caN1), constitutively active Notch2 (caN2), dominant negative Notch 1 (dnN1), dominant negative Notch 2 (dnN2), an oncogenic mutant of FGF1 engineered with the FGF4 signal peptide sequence (hst-β (FGF4):FGF1), or constitutively active oncogenic Ras construct (caRas), were plated on 6 cm tissue culture dishes with 0.5% agar in an overlay containing DMEM (Gibco BRL) media, 10% bovine calf serum (BCS; Hyclone), and 0.33% agar at 1.5×10^3 cells/dish. As indicated, some dishes were also treated with 1 μM of the FGFR1-specific inhibitor, PD166866 (Panek et al., 1998, J. Pharmacol. Exp. Ther. 286: 569-577) and/or 10 ng/ml recombinant human FGF1 and 10 U/ml heparin (Sigma). Cells were fed with 0.5 ml of media with or without FGF1 and/or the FGFR1-specific inhibitor every 3 days as indicated. Twenty days after plating, colonies were stained with p-iodonitrotetrazolium violet (Sigma) for visualization. Quantitation of colony formation was achieved by counting all p-iodonitrotetrazolium violet-stained colonies consisting of more than 4 cells under a Zeiss Stemi SVII Apo dissecting microscope.

[3] = tested on: Notch-dependent CSL1 activity in full-length Jagged1 NIH 3T3 cell transfectants; test: Dual Luciferase Reporter Assay of CSL1-dependent transcription
[4] = tested on: Swiss 3T3 cells expressing a dominant-negative FGFR1 mutant; test: DNA synthesis assay, (3H)-thymidine autoradiography; settings: 10 ng/ml FGF1 plus 10 units/ml heparin
Experimental: A combination of (^3H)-thymidine autoradiography and immunohistochemistry was used to evaluate the levels of DNA synthesis in Swiss 3T3 cells expressing a dominant-negative FGFR1 mutant. Swiss 3T3 cells were plated at 50% confluency on glass coverslips precoated with fibronectin (10 μg/cm^2) for 24 hours. The cells were transfected with the pCS2 vector expressing a dominant-negative X. laevis FGFR1 deletion mutant lacking the FGFR1 intracellular domain (a gift from Dr. R. Friesel) using the Fugene 6 reagent (Roche). After 24 hours, the medium was changed to DMEM containing 0.25% BCS and following a 48 hour incubation in low BCS, the cells were stimulated with either 10 μg/ml of α-thrombin, 10% BCS or 10 ng/ml of recombinant FGF1 plus 10 units/ml of heparin. After stimulation for 24 hours, (^3H)-thymidine (NEN; 1 μCi/ml) was added to the medium and cells were incubated for 12 hours and fixed with 4% neutral formaldehyde. […] The percentage of (^3H)-labeled nuclei among the dnFGFR1-positive and dnFGFR1-negative cells was quantitated using an inverted Olympus microscope.
Thus, a dominant-negative (dn) FGFR1 construct was expressed in Swiss 3T3 cells and their proliferative index measured in the presence and absence of exogenous thrombin.

[5] = tested on: caN1/CSL transcription in NIH 3T3 transfectants; test: Transient transfection assay of CSL-regulated transcription; settings: 1, 2.5, 5 or 10 ng/ml FGF1
Experimental: NIH 3T3 cells were plated onto fibronectin-coated (10 μg/cm2) 12-well tissue culture dishes and transiently transfected at approximately 80% confluency with 500 ng of a Luciferase construct activated by 4 tandem copies of the CSL (CBF1) response element (Hsieh et al. 1996, Mol. Cell. Biol. 16: 952-959), 100 ng of the TK Renilla (Promega) construct as an internal control for transfection efficiency, and 500 ng of either vector control, sJ1 or caN1 constructs using Fugene 6 (Roche) per manufacturer's instructions. For analysis of caN1 activity in the background of NIH 3T3 stable lines, vector control, caN1, sJ1 and hst-β(FGF4):FGF1 stable transfectants were plated onto fibronectin-coated (10 μg/cm2) 12-well tissue culture dishes and transiently transfected with 500 ng of the CSL-Luciferase construct, 100 ng of the TK Renilla (Promega) construct as an internal control for transfection efficiency, and 200 ng of caN1. […] The cells were harvested 48 hours after the media change and Luciferase/Renilla activity was measured using Promega's Dual-Luciferase Reporter Assay System. The efficiency of transcription was measured and normalized in relationship to the activity of pRL-TK Renilla and the activity is reported as the ratio of Luciferase/Renilla activity. […]

[6] = tested on: Jagged1 in NIH 3T3 stable transfectants; test: Immunoblot analysis of Jagged1 expression; settings: 10 ng/ml FGF1 and 10 U/ml heparin; all stable lines examined
Experimental: Vector control, SJ1, CaN1, J1, Hstβ(FGF4):FGF1 and sJ1:caN1 stable NIH 3T3 cell transfectants were plated on tissue culture dishes in either normal growth media (DMEM (Gibco BRL) media, 10% bovine calf serum (BCS; Hyclone)) or normal growth media containing 10 ng/ml recombinant FGF1 and 10 U/ml heparin. Cells were harvested at confluency (based on status of vector control cells grown in normal growth media).
Because hst-β(FGF4):FGF1 stable transfectants and the sJ1 transfectants grown in FGF1-containing media form spheroids, all cells were harvested by scraping in the presence of the growth media dn then the cells/growth media was collected into sterile 15 ml conical tubes. Cells were pelleted by centrifugation at 800×g for 5′ at 4° C. After centrifugation, the supernatant was removed and the cell pellets were washed 3× with 1×PBS. Cells were lysed in 500 μl in 20 mM tris, pH 7.5 containing 300 mM sucrose, 60 mM KCl, 15 mM NaCl, 0.5 mM EDTA, 0.5% (v/v) Triton X-100 1 mM Phenymethyl sulfonyl flouride, 0.1% SDS, 2 μg/ml aprotinin, 10 μg/ml aprotinin, 10 μg/ml leupeptin, and 1 mM sodium orthovanadate for 15 minutes on ice. Cell lysates were pelleted and the supernatant containing soluble proteins removed.
Samples were normalized to protein concentration using the BCA Protein Assay Kit (Pierce). […]

## COc1cc(OC)cc(-c2cc3cnc(N)nc3nc2NC(=O)NC(C)(C)C)c1 [PD166866]
[1]; 1 μM PD166866, sJ1, dnN1 and hst-β (FGF4):FGF1 stable transfectants
  effect on FGF1-induced spheroid formation: completely abolished
[2]; 1 μM PD166866, caRas cells
  effect on colony formation: no effect
[2]; 1 μM PD166866, sJ1, dnN1 and hst-β (FGF4):FGF1 transfectants
  effect on FGF1-mediated colony formation: substantially reduced
[2]; 1 μM PD166866, sJ1 and dnN1 in the absence of FGF1
  effect on small colony growth: inhibited

## FGF1: recombinant human fibroblast growth factor 1, added with heparin
[3]; 10 ng/ml exogenous FGF1
  CSL1-dependent transcription, of the control level: approximately 25%
[4]
  reduction by dnFGFR1 expression of the ability to induce replicating nuclei: approximately 70%
[1]; Notch-repressed cells (sJ1, dnN1)
  spheroid formation: formed multicellular, spheroid-like structures
[1]; vector control and caN1 transfectants
  spheroid formation: did not form spheroids
[2]; caN1 and vector control transfectants
  effect on colonies in soft agar: either no effect or only resulted in the formation of sparse and very small colonies
[2]; sJ1 and dnN1 transfectants
  effect on colonies in soft agar: greatly exaggerated the size of the colonies
[5]
  effect on caN1/CSL transcription: repressed caN1/CSL transcription in a dose-dependent fashion
[6]
  effect on Jagged1 expression: increased Jagged1 expression

## heparin [reference compound]
[3]; heparin 5 units/ml with thrombin 10 μg/ml
  effect of heparin on thrombin-dependent repression of CSL1-dependent transcription: able to potentiate
[3]; heparin by itself
  effect on CSL1-dependent transcription: ineffective
[3]; heparin in the presence of 10 μM TRAP
  effect on CSL1-dependent transcription: ineffective
